# System: PBMC (polyclonal gluten-specific T cells) of paediatric and adult CD patients
# Experiment: IFN-γ ELISpot of PBMC after 3 day oral wheat challenge (SFU, % of maximal peptide response, dominance scores, EC50; Examples 5-6)
# Assay type: cell-based, human
# Conditions: for Cross-reactive T cell response: following wheat challenge; for IFN-γ ELISpot response: after oral wheat challenge
# [1] = subject I (3-5yrs/6-10yrs part)
# [2] = subject J (3-5yrs/6-10yrs part)
# [3] = subject K (3-5yrs/6-10yrs part)
# [4] = subject V (3-5yrs/6-10yrs part)
# [5] = subject W (3-5yrs/6-10yrs part)
# [6] = subject Y (3-5yrs/6-10yrs part)
# [7] = subject five (3-5yrs/6-10yrs part)
# [8] = subject seven (3-5yrs/6-10yrs part)
# [9] = subject six (3-5yrs/6-10yrs part)
# [10] = subject ten (3-5yrs/6-10yrs part)
# [11] = subject two (3-5yrs/6-10yrs part)
sequence,measurement,setting,value
QEFPQPEQPFPQQ,Cross-reactive T cell response,"subject A, 11-17yrs",4 SFU
same,Significant response as a percentage of maximal peptide SFU,"subject D, 11-17yrs",′′′ (41-70% = ′′′)
same,Cross-reactive T cell response,"subject D, 11-17yrs",15 SFU
same,Significant response as a percentage of maximal peptide SFU,"subject E, 11-17yrs",′ (11-20% = ′)
same,Cross-reactive T cell response,"subject E, 11-17yrs",30 SFU
same,Significant response as a percentage of maximal peptide SFU,"subject F, 11-17yrs",′′ (21-40% = ′′)
same,Cross-reactive T cell response,"subject F, 11-17yrs",38 SFU
same,Cross-reactive T cell response,"subject G, 11-17yrs",4 SFU
same,Cross-reactive T cell response,subject H,1 SFU
same,Cross-reactive T cell response,[1],8 SFU
same,Significant response as a percentage of maximal peptide SFU,subject J,′′′ (41-70% = ′′′)
same,Cross-reactive T cell response,[2],93 SFU
same,Significant response as a percentage of maximal peptide SFU,subject K,′′ (21-40% = ′′)
same,Cross-reactive T cell response,[3],21 SFU
same,Cross-reactive T cell response,"subject P, 11-17yrs",7 SFU
same,Significant response as a percentage of maximal peptide SFU,"subject Q, 11-17yrs",′′′ (41-70% = ′′′)
same,Cross-reactive T cell response,"subject Q, 11-17yrs",44 SFU
same,Significant response as a percentage of maximal peptide SFU,"subject T, 11-17yrs",+ (>70% = +)
same,Cross-reactive T cell response,"subject T, 11-17yrs",67 SFU
same,Significant response as a percentage of maximal peptide SFU,"subject U, 11-17yrs",′′ (21-40% = ′′)
same,Cross-reactive T cell response,"subject U, 11-17yrs",23 SFU
same,Significant response as a percentage of maximal peptide SFU,subject V,′′ (21-40% = ′′)
same,Cross-reactive T cell response,[4],11 SFU
same,Cross-reactive T cell response,[5],3 SFU
same,Cross-reactive T cell response,[6],2 SFU
same,Significant response as a percentage of maximal peptide SFU,subject five,+ (>70% = +)
same,Cross-reactive T cell response,[7],36 SFU
same,Cross-reactive T cell response,"subject nine, 11-17yrs",1 SFU
same,Cross-reactive T cell response,[8],2 SFU
same,Cross-reactive T cell response,[9],6 SFU
same,Cross-reactive T cell response,[10],8 SFU
same,Significant response as a percentage of maximal peptide SFU,subject two,′′′ (41-70% = ′′′)
same,Cross-reactive T cell response,[11],30 SFU
QFIQPEQPFPQQ,IFN-γ ELISpot response,"patient A, 11-17 yrs, cut-off 10 SFU",0 SFU
same,IFN-γ ELISpot response,"patient E, H, 11-17 yrs, cut-off 10 SFU",31 SFU
same,Significant response as percentage of maximal peptide SFU,"patient E, max peptide 224 SFU",′ (11-20% = ′)
same,IFN-γ ELISpot response,"patient F, 11-17 yrs, cut-off 10 SFU",28 SFU
same,Significant response as percentage of maximal peptide SFU,"patient F, max peptide 178 SFU",′ (11-20% = ′)
same,IFN-γ ELISpot response,"patient G, 11-17 yrs, cut-off 10 SFU",2 SFU
same,IFN-γ ELISpot response,"patient H (HLA-DQ2.5 homozygote), 3-5yrs, cut-off 10 SFU",8 SFU
same,IFN-γ ELISpot response,"patient H, 11-17 yrs, cut-off 10 SFU",3 SFU
same,IFN-γ ELISpot response,"patient ID not given, 11-17 yrs, cut-off 10 SFU",21 SFU
same,Significant response as percentage of maximal peptide SFU,"patient ID not given, max peptide 95 SFU",′′ (21-40% = ′′)
same,Significant response as percentage of maximal peptide SFU,"patient II, max peptide 15 SFU",+ (>70% = +)
same,Significant response as percentage of maximal peptide SFU,"patient J, max peptide 196 SFU",′ (11-20% = ′)
same,Significant response as percentage of maximal peptide SFU,"patient K, max peptide 53 SFU",′′ (21-40% = ′′)
same,IFN-γ ELISpot response,"patient N, 3-5yrs, cut-off 10 SFU",6 SFU
same,IFN-γ ELISpot response,"patient P, 11-17 yrs, cut-off 21.6 SFU",8 SFU
same,IFN-γ ELISpot response,"patient Q, 11-17 yrs, cut-off 10 SFU",25 SFU
same,Significant response as percentage of maximal peptide SFU,"patient Q, max peptide 97 SFU",′′ (21-40% = ′′)
same,IFN-γ ELISpot response,"patient U, H, 11-17 yrs, cut-off 10 SFU",13 SFU
same,Significant response as percentage of maximal peptide SFU,"patient U, max peptide 81 SFU",′ (11-20% = ′)
same,IFN-γ ELISpot response,"patient V, 6-10 yrs, cut-off 10 SFU",19 SFU
same,Significant response as percentage of maximal peptide SFU,"patient V, max peptide 35 SFU",′′′ (41-70% = ′′′)
same,IFN-γ ELISpot response,"patient Y, 6-10 yrs, cut-off 10 SFU",3 SFU
same,IFN-γ ELISpot response,"patient eleven, 6-10 yrs, cut-off 10 SFU",0 SFU
same,IFN-γ ELISpot response,"patient four, 3-5yrs, cut-off 10 SFU",6 SFU
same,IFN-γ ELISpot response,"patient seven, 6-10 yrs, cut-off 10.5 SFU",8 SFU
same,IFN-γ ELISpot response,"patient ten, 3-5yrs, cut-off 10 SFU",6 SFU
same,IFN-γ ELISpot response,"patient three, 6-10 yrs, cut-off 10.5 SFU",30 SFU
same,IFN-γ ELISpot response,"patient twelve, 11-17 yrs, cut-off 10 SFU",6 SFU
same,IFN-γ ELISpot response,"patient two, 3-5yrs, cut-off 10 SFU",7 SFU
QLFPLPEQPFPQP,Cross-reactive T cell response,"subject A, 11-17yrs",2 SFU
same,Cross-reactive T cell response,"subject D, 11-17yrs",2 SFU
same,Cross-reactive T cell response,"subject E, 11-17yrs",2 SFU
same,Cross-reactive T cell response,"subject F, 11-17yrs",2 SFU
same,Cross-reactive T cell response,"subject G, 11-17yrs",0 SFU
same,Cross-reactive T cell response,subject H,0 SFU
same,Cross-reactive T cell response,[1],1 SFU
same,Significant response as a percentage of maximal peptide SFU,subject J,′ (11-20% = ′)
same,Cross-reactive T cell response,[2],26 SFU
same,Cross-reactive T cell response,[3],5 SFU
same,Cross-reactive T cell response,"subject P, 11-17yrs",11 SFU
same,Significant response as a percentage of maximal peptide SFU,"subject Q, 11-17yrs",′ (11-20% = ′)
same,Cross-reactive T cell response,"subject Q, 11-17yrs",13 SFU
same,Significant response as a percentage of maximal peptide SFU,"subject T, 11-17yrs",′ (11-20% = ′)
same,Cross-reactive T cell response,"subject T, 11-17yrs",13 SFU
same,Cross-reactive T cell response,"subject U, 11-17yrs",9 SFU
same,Cross-reactive T cell response,[4],4 SFU
same,Cross-reactive T cell response,[5],4 SFU
same,Cross-reactive T cell response,[6],2 SFU
same,Cross-reactive T cell response,[7],7 SFU
same,Cross-reactive T cell response,"subject nine, 11-17yrs",1 SFU
same,Cross-reactive T cell response,[8],1 SFU
same,Cross-reactive T cell response,[9],0 SFU
same,Significant response as a percentage of maximal peptide SFU,subject ten,+ (>70% = +)
same,Cross-reactive T cell response,[10],14 SFU
same,Cross-reactive T cell response,[11],3 SFU
QPEQPFPLQPEQPVP,Cross-reactive T cell response,"subject A, 11-17yrs",1 SFU
same,Cross-reactive T cell response,"subject D, 11-17yrs",0 SFU
same,Cross-reactive T cell response,"subject E, 11-17yrs",9 SFU
same,Significant response as a percentage of maximal peptide SFU,"subject F, 11-17yrs",′ (11-20% = ′)
same,Cross-reactive T cell response,"subject F, 11-17yrs",27 SFU
same,Cross-reactive T cell response,"subject G, 11-17yrs",2 SFU
same,Cross-reactive T cell response,subject H,3 SFU
same,Cross-reactive T cell response,[1],1 SFU
same,Significant response as a percentage of maximal peptide SFU,subject J,(6-10% - ^)
same,Cross-reactive T cell response,[2],11 SFU
same,Cross-reactive T cell response,[3],8 SFU
same,Cross-reactive T cell response,"subject P, 11-17yrs",12 SFU
same,Significant response as a percentage of maximal peptide SFU,"subject Q, 11-17yrs",′′ (21-40% = ′′)
same,Cross-reactive T cell response,"subject Q, 11-17yrs",20 SFU
same,Significant response as a percentage of maximal peptide SFU,"subject T, 11-17yrs",′ (11-20% = ′)
same,Cross-reactive T cell response,"subject T, 11-17yrs",16 SFU
same,Cross-reactive T cell response,"subject U, 11-17yrs",9 SFU
same,Cross-reactive T cell response,[4],4 SFU
same,Cross-reactive T cell response,[5],4 SFU
same,Cross-reactive T cell response,[6],1 SFU
same,Cross-reactive T cell response,[7],3 SFU
same,Cross-reactive T cell response,"subject nine, 11-17yrs",0 SFU
same,Significant response as a percentage of maximal peptide SFU,subject seven,+ (>70% = +)
same,Cross-reactive T cell response,[8],19 SFU
same,Cross-reactive T cell response,[9],2 SFU
same,Cross-reactive T cell response,[10],8 SFU
same,Cross-reactive T cell response,[11],6 SFU
